Laboratory results reported in patent US9863953B2, “Method for determining prognosis of cancer” (KYOTO UNIVERSITY, priority 2013, dated 2018).
“Also recorded” adds a separate entry of the source.

Assays:
Rho = assay: Active Rho (GTP-Rho) pull-down assay in RKO cells; format: cell-based, human
Method: GTP-Rho was pulled-down and detected by using Rho activation assay kit (Thermo) according to the manufacturers' protocol. Briefly, tissues or CRC cells were lysed with lysis buffer, and GTP-Rho in the lysates was pulled-down using Rhotekin and detected by anti-Rho antibody in western analysis.
(§1) Recombinant DLL4 (rDLL4) (R&D) was resuspended with PBS. For scratch and GTP-Rho pull-down assays, 1 μg was put into 6-well culture plate to coat its surface with rDLL4 at 0.1 μg/cm^2. For q-RT-PCR assays, the plate surface was coated with rDLL4 at 0.1-1 μg/cm^2. After overnight incubation at 4-degree, the plates were washed once with PBS and plated with CRC cells. For expression analysis of HES1 and DAB1, cells were lysed and mRNA was extracted after four hours.
(§2) Cultured CRC cells were washed with PBS, treated with 10 mM EDTA in PBS for 2 minutes, and incubated again in culture media. […] After incubation for defined period, cells were lysed and cleaved Notch and GTP-Rho was detected. DAPT (Calbiochem) were applied to cultured CRC cells to inhibit its γ-secretase activity.

Notch receptor = Notch receptor cleavage (NICD) after EDTA treatment, IP-western; format: cell-based, human; settings: 10 mM EDTA; anti-Notch1 (C-term) antibody
Method: as §2
ABL1B cDNA was prepared from cDNA pool of human colon and tagged with hemaglutinin (HA) sequence to construct ABL1B-HA. The wild-type cDNA was mutagenized by QuikChange Lightning Multi Site-Directed Mutagenesis Kit (Agilent) to derive kinase-dead ABL1B(K290R)-HA mutant. These ABL1B constructs were placed into pEFBosneo expression vector (provided by Shigekazu Nagata, Kyoto University, Japan). DAB1-Flag cDNA was inserted into pcDNA3 (Invitrogen). TRIO cDNA (provided by Anne Debant, CRBM-CNRS, France) was tagged with T7 sequence and inserted into pCX expression vector carrying CAG promoter and rabbit β-globin poly(A) (provided by Masaru Okabe, Osaka University, Japan). NICD-Myc expression vector was provided by Tasuku Honjo, Kyoto University, Japan. These expression vectors were transfected into CRC or HEK293T cells using Lipofectamine LTX (Invitrogen). Sixteen hours post-transfection, the cells were lysed in lysis buffer (10 mM Tris-Cl, 1 mM EDTA, 150 mM NaCl and 1% NP-40). The supernatants were mixed with agarose conjugated with anti-HA, Flag, T7, or Myc antibodies (MBL). […]

HCT116 cells [1] = assay: Attachment assay of CRC cells to lung endothelial cell layer; format: cell-based, human
Method: Attachment assay was performed according to the established protocol {Reymond, 2012}. Briefly, human lung endothelial cells were plated onto collagen-coated dish. After they reached confluent to form a layer, EGFP-labeled CRC cells were plated onto it. Fifteen minutes later, floating cells were washed with PBS, and the numbers of CRC cells adhering to the endothelial layer were counted under a fluorescent microscope.

DAB1 = DAB1 mRNA quantitative RT-PCR in LS174T cells on rDLL4; format: cell-based, human
Method: as §1
TaqMan primers/probes for quantification of HES1, DAB1, ABL1, and ABL2 mRNAs were purchased from ABI. ChIP analyses were performed by using CRC cells and anti-Rbpj (Institute of Immunology) and anti-NICD (Cell Signaling Technology) antibodies according to published protocol (Kakizaki et al., 2010). Precipitated fragments of genomic DNA were tested for enrichment of promoter regions of HES1 gene by SYBR green (ABI) using hHES1ChIP.F ([…]) (SEQ ID NO: 4) and hHES1ChIP.R ([…]) (SEQ ID NO: 5) primers that sandwich high affinity binding sequence of Rbpj. Similarly, enrichment of DAB1 promoter fragments was quantified by hDAB1ChIP.F2 ([…]) (SEQ ID NO: 6) and hDAB1ChIP.R2 ([…]) (SEQ ID NO: 7) primers.

RKO human CRC cells [2] = assay: Matrigel invasion assay, RKO cells; format: cell-based; settings: for Matrigel invasion of RKO cells: inhibitor treatment 16 h prior to assay
Method: (§3) Matrigel invasion assays were performed as previously described using Matrigel (BD) {Sonoshita, 2011}. For TEM assay, human umbilical vein endothelial cell (HUVEC) was seeded in the upper chamber of Transwell (Corning). One day (24 h) later, EGFP-labeled CRC cells were plated onto the layer of HUVEC. After 24 h, CRC cells migrated to the lower side of the membrane were counted under a fluorescent microscope.

HCT116 cells [3] = assay: Matrigel invasion assay, HCT116 cells; format: cell-based, human
Method: as §3

RKO human CRC cells [4] = assay: Transendothelial migration (TEM) assay, RKO cells; format: cell-based; settings: inhibitor treatment 16 h prior, HUVEC layer, 24 h
Method: as §3

HCT116 = assay: Transendothelial migration (TEM) assay, HCT116 cells; format: cell-based, human; settings: HCT116, data not shown
Method: as §3

[5] = test system: Apc/Aes compound mutant mice; assay: Tumor invasion histopathology in Apc/Aes compound mutant mice; format: in vivo, mouse; settings: 50 mg/kg/day i.p. for 9 weeks
Excerpt: Apc^+/Δ716 mutant mice were generated and maintained as described previously {Oshima, 1995}. Apc^+/Δ716Aes^Floxed/FloxedvCre^ERT2 (abbreviated as Apc/Aes) mice were constructed as reported to knockout Aes in Apc^+/Δ716 mice by virtue of Cre^ERT2 whose expression is driven by intestinal epithelium-specific villin promoter {Sonoshita, 2011}. Rbpj floxed allele was constructed as reported {Han, 2002}, obtained from RIKEN BRC, and crossed with Apc/Aes mice to derive Apc^+/Δ716Aes^Floxed/FloxedRbpj^Floxed/FloxedvCre^ERT2 (Apc/Aes/Rbpj) mice. Dab1 floxed allele was constructed (Imai et al., in preparation) and crossed with Apc/Aes mice to obtain Apc^+/Δ716Aes^Floxed/FloxedDab1^Floxed/FloxedvCre^ERT2 (Apc/Aes/Dab1) mice. Tumor histopathology in compound mutant mice was analyzed at 12 weeks of age. […] Total of ˜100 tumors with diameters larger than 2 mm from 5 mice were scored for each mutant genotype. CRC cell lines were obtained from ATCC. Upon transplantation into the rectal smooth muscle, CRC cells formed a visible primary tumor within a week. Six weeks later, mice were euthanized and examined for metastatic foci under a fluorescent microscope (Leica). All animal experiments were conducted according to the protocol approved by the Animal Care and Use Committee of Kyoto University.

TRIO = assay: Cell-free RhoGEF GTP exchange assay; format: biochemical, human; settings: TRIO(WT) from imatinib-treated HEK293T transfectants; recombinant RhoA, mant-GTP, 10 min
Excerpt: First, we transfected HEK293T cells with an expression plasmid for T7-TRIO (either WT, Y2681F or G2699V), and pulled-down each TRIO protein from cell lysates using agarose conjugated with anti-T7 antibody (MBL). Then we mixed the TRIO fraction with recombinant RhoA in the presence of mant-GTP (Cytoskeleton) that emits stronger fluorescence when bound to Rho small GTPases (Rossman et al., 2002).

In the case of C[C@H](NC(=O)Cc1cc(F)cc(F)c1)C(=O)N[C@H](C(=O)OC(C)(C)C)c1ccccc1 [DAPT], the “Rho activation (GTP-Rho) after Notch receptor activation with EDTA” value (Rho; RKO cells, 10 μM DAPT for 12 h, then 10 mM EDTA) is reported as “inhibited; also recorded: Suppression”, the “Cleaved Notch receptor (NICD) upon EDTA treatment” value (Notch receptor) is reported as “blocked; also recorded: inhibited” and the “Number of CRC cells remaining attached to the EC layer” value (HCT116 cells [1]; HCT116 treated 2 hours, washing at 15 min post plating) is reported as “reduced”. The “EC adhesion of CRC cells with RBPJ knocked-down” value (HCT116 cells [1]; RBPJ-knockdown HCT116, DAPT 2 hours) was “prevented” and the “DAB1 mRNA expression induced by rDLL4” value (DAB1; LS174T, 10 μM DAPT for 24 h, rDLL4-coated dishes, 4 h) was “inhibited”.

CCN(CC)CCCC(C)Nc1nc(C)cc(Nc2ccc3nc(C)cc(N)c3c2)n1 (centres unmarked) [NSC23766] was tested, and the “Matrigel invasion of RKO cells” value (RKO human CRC cells [2]) was “did not affect” and the “Matrigel invasion of RKO cells” value (RKO human CRC cells [2]; listed as NSC27366) was “Little effect”.

With CC(C)(C)n1nc(-c2ccc(Cl)cc2)c2c(N)ncnc21 [PP2] the “effect on the RKO cell invasion in culture” value (RKO human CRC cells [2]; RKO cell invasion in culture, FIG. 10A) was roughly 20%, the “Matrigel invasion of RKO cells” value (RKO human CRC cells [2]) was “only a minor inhibition” and the Matrigel invasion (HCT116 cells [3]; PP2 at 10 μm, FIG. 10A) was “only a minor effect”.

For C[C@@H](N)[C@H]1CC[C@H](C(=O)Nc2ccncc2)CC1 [Y-27632], the “Matrigel invasion of RKO cells” value (RKO human CRC cells [2]) was “suppresses”, the “Transendothelial migration (TEM) of RKO cells” value (RKO human CRC cells [4]) was “suppresses” and the “Matrigel invasion of HCT116 cells” value (HCT116 cells [3]; HCT116, data not shown) was “suppressed”. For the same molecule, the “Transendothelial migration (TEM) of HCT116 cells” value (HCT116) was “suppressed”.

For Cc1nc(Nc2ncc(C(=O)Nc3c(C)cccc3Cl)s2)cc(N2CCN(CCO)CC2)n1.O [dasatinib, N-(2-chloro-6-methylphenyl)-2-[[6-[4-(2-hydroxyethyl)-1-piperazinyl]-2-methyl-4-pyrimidinyl]amino]-5-thiazole carboxamide monohydrate], the “Matrigel invasion of RKO cells” value (RKO human CRC cells [2]) was “suppressed the invasion significantly” and the “HCT116 cell invasion in Matrigel” value (HCT116 cells [3]; dasatinib at 0.01 μm, FIG. 10A) was “tight suppression”.

In the case of Cc1ccc(NC(=O)c2ccc(CN3CCN(C)CC3)cc2)cc1Nc1nccc(-c2cccnc2)n1 [imatinib, 4-(4-methylpiperazin-1-ylmethyl)-N-[4-methyl-3-(4-(pyridin-3-yl)-pyrimidin-2-ylamino-)phenyl]-benzamide], the “Matrigel invasion of RKO cells” value (RKO human CRC cells [2]) is reported as “blocks”, the “Rho activation (GTP-Rho) induced by EDTA” value (Rho; RKO cells, pull-down 5 minutes after EDTA, dose-dependent) is reported as “blocked; also recorded: inhibits” and the “tumor size or number” value [5] is reported as “without changing”. The “CRC invasion (depth of tumor invasion)” value ([5]; 50 mg/kg/day) was “significant suppression; also recorded: suppresses” and the “Capacity of Rho activation (RhoGEF activity) of TRIO(WT) purified from imatinib-treated cells” value (TRIO) was “significantly decreased”.

In the case of “rDLL4: recombinant extracellular domain of Notch ligand DLL4 (R&D), immobilized on dish surface”, the “Rho activation (GTP-Rho)” value (Rho; cultured CRC cells on dishes coated with rDLL4) is reported as “activated” and the “DAB1 mRNA expression” value (DAB1; LS174T on immobilized rDLL4 0.1-1 μg/cm^2, 4 h, dose-dependent) is reported as “increased; also recorded: induces”.
